Experimental data reported in patent US20050239899A1, “Beta-secretase inhibitors” (priority 2002, published 2005).
pIC50: −log10 of the molar value.

Key:
rhBACE = target: T1, rhBACE (Homo sapiens, UniProt P56817); assay: Fluorescence BACE assay; type: biochemical; conditions: EDANS/Dabcyl peptide substrate, pH 5, 2 hours at 37 C
T1 construct: purchased R&D systems 931-AS
Description: The inhibitory activity of the compounds of the invention was shown in an in vitro assay, namely a fluorescence BACE assay.
The assay was set up in triplicate wells of 96 well black plate. rhBACE was diluted to 1 unit/well in […] (PBS +0.5% Triton-X 100, pH 5). BACE enzyme (obtained from R&D systems (ca.No. 931-AS), reference: Vasser et al., 1999, Science 286, 735-741) was incubated with various concentrations of inhibitor compound (10 nM to 500 µM) for 5 min; Reaction was started by adding peptide substrate (obtained from BACHEM (cat. No. M-2470), reference: Ermolieff et al., Biochemistry 39 (2000) 12450-56) with EDANS/Dabcyl labels. After incubation for 2 hours at 37 C the results were read in fluoroplate reader at 355 nm/486 nm.

cells = assay: cellular assay (activity in cells); type: cell-based
From the text: As combined pharmacophore, for example, a combination of common pharmacophore for aspartyl proteases and a surface-based (surf2lead®) pharmacophore of the crystallized beta-secretase:OM922 complex can be used. For the common pharmacophore of the aspartyl proteases the active center was employed for generation of the pharmacophore. For the surf2lead approach the surface of the active center of the beta-secretase: OM922 complex crystallized with inhibitor was used for generation of the pharmacophore. A query for PHACIR screening was generated from a combination of the two pharmacophores. The compounds of the focused library identified by virtual screening then can be subjected to an in vitro assay, e.g. a fluorescence BACE assay, or a cellular assay in order to determine its possible inhibitory action.

T1 sequence (P56817 46-501): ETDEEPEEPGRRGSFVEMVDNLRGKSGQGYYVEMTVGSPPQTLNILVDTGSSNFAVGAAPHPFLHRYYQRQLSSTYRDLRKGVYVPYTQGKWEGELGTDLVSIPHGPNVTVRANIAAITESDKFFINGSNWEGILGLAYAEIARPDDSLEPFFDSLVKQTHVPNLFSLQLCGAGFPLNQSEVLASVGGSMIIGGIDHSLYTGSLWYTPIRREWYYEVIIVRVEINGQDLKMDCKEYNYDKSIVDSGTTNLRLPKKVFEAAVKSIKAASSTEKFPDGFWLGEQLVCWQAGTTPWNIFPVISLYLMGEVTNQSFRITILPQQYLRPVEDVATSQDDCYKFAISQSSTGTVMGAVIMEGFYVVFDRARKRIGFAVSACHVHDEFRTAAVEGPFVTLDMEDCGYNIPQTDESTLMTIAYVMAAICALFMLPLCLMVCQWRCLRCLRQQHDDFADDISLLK

| SMILES | pIC50 (rhBACE) | activity in cells / cell permeability (cells) |
| --- | --- | --- |
| C=CCn1c(SCc2ccc(Cl)cc2)nc2sc3c(c2c1=N)CCCC3 [ID3] | 5.00 | especially cell-permeable active compounds |
| O=[N+]([O-])c1cc(C(F)(F)F)cc([N+](=O)[O-])c1N/N=C/c1cc(Cl)cc(Cl)c1O [ID6] | 4.41 | – |
| C/C(=N\Nc1ccccc1)c1cc(Cl)cc(Cl)c1O [ID7] | 4.84 | especially cell-permeable active compounds |

Continued, in another order:

| pIC50 (rhBACE) | SMILES | activity in cells / cell permeability (cells) |
| --- | --- | --- |
| 4.35 | O=C(Nc1cc(-c2ccc(Cl)cc2)nn1-c1ccc(I)cc1)C1CCC1 [ID1] | – |
| 4.54 | Oc1c(Cl)cc(Cl)cc1/C=N/Nc1c(Cl)cncc1Cl [ID2] | – |
| 3.77 to 3.85 | C/C(=N\OC(=O)c1c(-c2c(Cl)cccc2Cl)noc1C)c1ccccc1O [ID4] | – |
| 4.28 | Oc1c(Cl)cc(Cl)cc1/C=N/Nc1ncnc2sc3c(c12)CCCC3 [ID5] | – |
